Among the test systems are SNB-75 CNS; A498 renal; MDA-MB-231 breast; SK-OV-3 ovarian; HL-60(TB) leukemia; K-562 leukemia; HCC-2998 colon; MDA-MB-435; MOLT-4 leukemia; OVCAR-4 ovarian.
Common to all, as to test: NCI anticancer screen, dose series, 48 h

The structures appear in SMILES notation.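 Five compound concentrations were applied to cells in 96-well plates for 48 hours; endpoints were derived by simple linear interpolation of the resulting dose-response curve. At the TGI there is no net growth.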 Where only a bound is given, the exact number is not on record here.

For `O=C(O)CCc1nc2c(n1-c1ccccc1)C(=O)c1ccccc1C2=O`, the TGI in the experiment with SNB-75 CNS, in the experiment on A498 renal, in the experiment with MDA-MB-231 breast, in the experiment on SK-OV-3 ovarian, in the experiment on HL-60(TB) leukemia and with K-562 leukemia was over 100 µM in each case. The TGI in the experiment with HCC-2998 colon, in the experiment on MDA-MB-435, with MOLT-4 leukemia and in the experiment with OVCAR-4 ovarian was over 100 µM each time.

On to `COc1cc(/C=C2\C(=O)N(c3cccc([N+](=O)[O-])c3)C(c3ccccc3)S2(=O)=O)cc(OC)c1OC` (stereo not given), for which the TGI in the experiment with SNB-75 CNS, in the experiment with A498 renal, with MDA-MB-231 breast, in the experiment on SK-OV-3 ovarian, with HL-60(TB) leukemia and with K-562 leukemia was over 100 µM in each case. The TGI in the experiment with HCC-2998 colon, in the experiment with MDA-MB-435, in the experiment with MOLT-4 leukemia and in the experiment on OVCAR-4 ovarian was over 100 µM each time.

`C/C(CC(O)(C(F)(F)F)C(F)(F)F)=N\NC(N)=O`: the TGI in the experiment on SNB-75 CNS, in the experiment on A498 renal, in the experiment on MDA-MB-231 breast, in the experiment with SK-OV-3 ovarian, with HL-60(TB) leukemia and with K-562 leukemia was over 10 µM throughout. The TGI in the experiment on HCC-2998 colon, with MDA-MB-435, in the experiment on MOLT-4 leukemia and with OVCAR-4 ovarian was over 10 µM in each case.

Take `CC(C)(C)c1ccc(OCCOc2ccc(C(C)(C)C)cc2N)c(N)c1`: the TGI in the experiment on SNB-75 CNS, with A498 renal, with MDA-MB-231 breast, in the experiment with SK-OV-3 ovarian, with HL-60(TB) leukemia and with K-562 leukemia was over 100 µM each time. For the same molecule, the TGI in the experiment with HCC-2998 colon, in the experiment with MDA-MB-435, in the experiment on MOLT-4 leukemia and in the experiment with OVCAR-4 ovarian was over 100 µM each time.

`C[C@@]1(O)C2CC3CC1(c1ccccc1)CC(/C3=N/O)/C2=N\O` (stereo not given in full): the TGI in the experiment with SNB-75 CNS, in the experiment with A498 renal, in the experiment with MDA-MB-231 breast, with SK-OV-3 ovarian, in the experiment on HL-60(TB) leukemia and in the experiment with K-562 leukemia was over 100 µM in each case. The TGI with HCC-2998 colon, in the experiment with MDA-MB-435, in the experiment on MOLT-4 leukemia and in the experiment with OVCAR-4 ovarian was over 100 µM in each case.

In the case of `COC(=O)Cc1cc(O)c2c(c1O)C(=O)c1ccccc1C2=O`, the TGI was 49 µM in the experiment on SNB-75 CNS; over 87.1 µM in the experiment on A498 renal; 97.5 µM with MDA-MB-231 breast; over 100 µM in the experiment on SK-OV-3 ovarian; over 100 µM in the experiment on HL-60(TB) leukemia; over 100 µM in the experiment with K-562 leukemia. Also, the TGI with HCC-2998 colon, in the experiment on MDA-MB-435, with MOLT-4 leukemia and in the experiment with OVCAR-4 ovarian was over 100 µM throughout.

As to `N#CN1C2CCC1CC(=O)C2`, the TGI in the experiment with SNB-75 CNS, in the experiment on A498 renal, with MDA-MB-231 breast, in the experiment with SK-OV-3 ovarian, in the experiment on HL-60(TB) leukemia and in the experiment on K-562 leukemia was over 100 µM each time. The TGI in the experiment with HCC-2998 colon, in the experiment with MDA-MB-435, in the experiment on MOLT-4 leukemia and in the experiment on OVCAR-4 ovarian was over 100 µM in each case.

On to `CCC/C(Cl)=N\OC(=O)Nc1ccc(F)cc1`, for which the TGI with SNB-75 CNS is over 58 µM; in the experiment with A498 renal, 35.3 µM; with MDA-MB-231 breast, 33.1 µM; in the experiment with SK-OV-3 ovarian it was over 59.7 µM; in the experiment with HL-60(TB) leukemia, 3.86 µM; with K-562 leukemia, 4 µM. Further, the TGI in the experiment with HCC-2998 colon worked out at 32.4 µM; in the experiment on MDA-MB-435, 31.9 µM; with MOLT-4 leukemia it was 14.9 µM; in the experiment with OVCAR-4 ovarian, 30.8 µM.

With `Oc1cc(Cc2ccccc2)c(Cc2ccccc2)cc1O`, the TGI in the experiment with SNB-75 CNS, in the experiment with A498 renal, in the experiment on MDA-MB-231 breast, in the experiment with SK-OV-3 ovarian, with HL-60(TB) leukemia and with K-562 leukemia was over 10 µM each time. For the same molecule, the TGI in the experiment with HCC-2998 colon, in the experiment with MDA-MB-435, in the experiment on MOLT-4 leukemia and with OVCAR-4 ovarian was over 10 µM each time.

On to `COc1cc2c(c3c1c(=O)c1ccccc1n3C)C=CC1(CCCC1)O2`, for which the TGI stood at 24.8 µM in the experiment with SNB-75 CNS; 31.9 µM with A498 renal; 38.2 µM in the experiment with MDA-MB-231 breast; 38.4 µM in the experiment with SK-OV-3 ovarian; 26.1 µM in the experiment with HL-60(TB) leukemia; 21.7 µM with K-562 leukemia. For the same molecule, the TGI is 37.7 µM with HCC-2998 colon, 35 µM in the experiment on MDA-MB-435, over 100 µM in the experiment with MOLT-4 leukemia and 25.8 µM in the experiment with OVCAR-4 ovarian.

Take `COC1CC(N)(c2ccccc2)C(O)C(C)O1` (stereo not given): the TGI in the experiment with SNB-75 CNS, in the experiment on A498 renal, with MDA-MB-231 breast, with SK-OV-3 ovarian, with HL-60(TB) leukemia and with K-562 leukemia was over 100 µM throughout. Also, the TGI in the experiment with HCC-2998 colon, with MDA-MB-435, in the experiment on MOLT-4 leukemia and with OVCAR-4 ovarian was over 100 µM throughout.

The values above are taken from PubChem BioAssay (NCI).
